Structures can show the parent of a compound that is named as a salt.
Key:
[1] = target: T1, human JAK1 (a.a. 837-1142) (Homo sapiens, UniProt P23458); experiment: In vitro JAK kinase assay (HTRF, phosphorylation of a biotinylated peptide), JAK1; type: biochemical; settings: Assay Conditions 1 mM ATP
T1 construct: human JAK1 (a.a. 837-1142); His tag (N); made in house; host or cells: insect cells (baculovirus)
Outline: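 His-tagged catalytic domains (JAK1 a.a. 837-1142, JAK2 a.a. 828-1132) from insect cells phosphorylate 500 nM biotinylated peptide in 50 mM Tris pH 7.8, 100 mM NaCl, 5 mM DTT; ATP at Km (90 μM JAK1, 30 μM JAK2) or 1 mM, as indicated. 1 h at RT; EDTA stop, HTRF readout; IC50s.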

Jak2 (a.a. 828-1132) = target: T2, Jak2 (a.a. 828-1132) (Homo sapiens, UniProt O60674); experiment: In vitro JAK kinase assay (HTRF, phosphorylation of a biotinylated peptide), JAK2, reported as JAK2/JAK1 ratio; type: biochemical; settings: Assay Conditions 1 mM ATP
T2 construct: Jak2 (a.a. 828-1132); His tag (N); made in house; host or cells: insect cells (baculovirus)
T2 sequence (O60674 828-1132): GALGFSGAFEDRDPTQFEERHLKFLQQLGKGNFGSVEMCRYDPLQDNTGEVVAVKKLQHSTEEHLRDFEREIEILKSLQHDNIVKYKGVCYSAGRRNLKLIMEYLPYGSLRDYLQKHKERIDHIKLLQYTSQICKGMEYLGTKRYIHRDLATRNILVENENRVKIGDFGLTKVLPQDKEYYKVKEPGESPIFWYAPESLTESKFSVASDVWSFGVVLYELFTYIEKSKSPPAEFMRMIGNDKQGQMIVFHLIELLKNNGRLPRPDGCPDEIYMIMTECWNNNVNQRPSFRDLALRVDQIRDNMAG

T1 sequence (P23458 849-1154): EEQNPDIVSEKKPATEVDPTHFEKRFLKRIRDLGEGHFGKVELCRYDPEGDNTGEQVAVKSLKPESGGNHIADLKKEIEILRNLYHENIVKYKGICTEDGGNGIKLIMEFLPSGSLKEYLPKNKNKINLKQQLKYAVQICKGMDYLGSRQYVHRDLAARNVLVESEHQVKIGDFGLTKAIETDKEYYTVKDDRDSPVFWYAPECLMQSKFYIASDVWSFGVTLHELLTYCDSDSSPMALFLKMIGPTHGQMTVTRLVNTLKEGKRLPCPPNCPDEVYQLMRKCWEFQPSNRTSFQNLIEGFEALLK

Row | SMILES | IC50 [1] [nM] | JAK2/JAK1 IC50 ratio (Jak2 (a.a. 828-1132))
1 | N#CC[C@@H]([C@H]1CCN(c2ncncc2C#N)C1)n1cc(-c2ncnc3[nH]ccc23)cn1 [Example 84, 4-((S)-3-((S)-1-(4-(7H-pyrrolo[2,3-d]pyrimidin-4-yl)-1H-pyrazol-1-yl)-2-cyanoethyl)pyrrolidin-1-yl)pyrimidine-5-carbonitrile trifluoroacetate] | < 50 | 11.5
2 | FCC([C@H]1CCN(c2nc3c(cc2F)CCS3)C1)n1cc(-c2ncnc3[nH]ccc23)cn1 (stereo partly drawn) [Example 85, 4-(1-{2-fluoro-1-[(3S)-1-(5-fluoro-2,3-dihydrothieno[2,3-b]pyridin-6-yl)pyrrolidin-3-yl]ethyl}-1H-pyrazol-4-yl)-7H-pyrrolo[2,3-d]pyrimidine bis(trifluoroacetate)] | < 50 | 5.3
3 | O=S1(=O)CCc2cc(F)c(N3CC[C@H](C(CF)n4cc(-c5ncnc6[nH]ccc56)cn4)C3)nc21 (stereo partly drawn) [Example 86, 4-(1-{2-fluoro-1-[(3S)-1-(5-fluoro-1,1-dioxido-2,3-dihydrothieno[2,3-b]pyridin-6-yl)pyrrolidin-3-yl]ethyl}-1H-pyrazol-4-yl)-7H-pyrrolo[2,3-d]pyrimidine tetrakis(trifluoroacetate)] | < 50 | 13.0
4 | N#CC[C@@H]([C@H]1CCN(c2nc3c(cc2F)CCS3)C1)n1cc(-c2ncnc3[nH]ccc23)cn1 [Example 87, (3S)-3-[(3S)-1-(5-fluoro-2,3-dihydrothieno[2,3-b]pyridin-6-yl)pyrrolidin-3-yl]-3-[4-(7H-pyrrolo[2,3-d]pyrimidin-4-yl)-1H-pyrazol-1-yl]propanenitrile bis(trifluoroacetate)] | < 50 | 8.1
5 | COCc1c(F)cnc(N2CC[C@H]([C@H](CC#N)n3cc(-c4ncnc5[nH]ccc45)cn3)C2)c1C#N [Example 95, 2-((3S)-3-{(1S)-2-cyano-1-[4-(7H-pyrrolo[2,3-d]pyrimidin-4-yl)-1H-pyrazol-1-yl]ethyl}pyrrolidin-1-yl)-5-fluoro-4-(methoxymethyl)nicotinonitrile bis(trifluoroacetate)] | < 50 | 16.4
6 | COCc1ccnc(N2CC[C@H]([C@H](CC#N)n3cc(-c4ncnc5[nH]ccc45)cn3)C2)c1C#N [Example 96, 2-((3S)-3-{(1S)-2-cyano-1-[4-(7H-pyrrolo[2,3-d]pyrimidin-4-yl)-1H-pyrazol-1-yl]ethyl}pyrrolidin-1-yl)-4-(methoxymethyl)nicotinonitrile tris(trifluoroacetate)] | < 50 | 16.3
7 | COc1ncnc(N2CC[C@H]([C@H](CC#N)n3cc(-c4ncnc5[nH]ccc45)cn3)C2)c1C#N [Example 98, 4-((S)-3-((S)-1-(4-(7H-pyrrolo[2,3-d]pyrimidin-4-yl)-1H-pyrazol-1-yl) 2-cyanoethyl)pyrrolidin-1-yl)-6-methoxypyrimidine-5-carbonitrile trifluoroacetate] | < 50 | >9.1
8 | Cc1ccnc(N2CC[C@H]([C@H](CC#N)n3cc(-c4ncnc5[nH]ccc45)cn3)C2)c1C#N [Example 100, 2-((S)-3-((S)-1-(4-(7H-pyrrolo[2,3-d]pyrimidin-4-yl)-1H-pyrazol-1-yl)-2-cyanoethyl)pyrrolidin-1-yl)-4-methylnicotinonitrile trifluoroacetate] | < 50 | >7.4
9 | N#CC[C@@H]([C@H]1CCN(c2ncc3ncsc3n2)C1)n1cc(-c2ncnc3[nH]ccc23)cn1 [Example 102, (3S)-3-[4-(7H-pyrrolo[2,3-d]pyrimidin-4-yl)-1H-pyrazol-1-yl]-3-[(3S)-1-[1,3]thiazolo[5,4-d]pyrimidin-5-ylpyrrolidin-3-yl]propanenitrile bis(trifluoroacetate)] | < 50 | 12.8

Continued, values first:

Row | IC50 [1] [nM] | JAK2/JAK1 IC50 ratio (Jak2 (a.a. 828-1132)) | SMILES
10 | < 50 | 40.0 | N#CC[C@@H]([C@H]1CCN(c2nc(Br)ccc2F)C1)n1cc(-c2ncnc3[nH]ccc23)cn1.O=C(O)C(F)(F)F.O=C(O)C(F)(F)F [Example 88, (3S)-3-[(3S)-1-(6-bromo-3-fluoropyridin-2-yl)pyrrolidin-3-yl]-3-[4-(7H-pyrrolo[2,3-d]pyrimidin-4-yl)-1H-pyrazol-1-yl]propanenitrile bis(trifluoroacetate)]
11 | < 50 | 3.1 | N#CC[C@@H]([C@H]1CCN(c2ccc(F)c(F)n2)C1)n1cc(-c2ncnc3[nH]ccc23)cn1.O=C(O)C(F)(F)F [Example 89, (3S)-3-[(3S)-1-(5,6-difluoropyridin-2-yl)pyrrolidin-3-yl]-3-[4-(7H-pyrrolo[2,3-d]pyrimidin-4-yl)-1H-pyrazol-1-yl]propanenitrile trifluoroacetate]
12 | < 50 | 4.3 | N#CC[C@@H]([C@H]1CCN(c2nc(Cl)c(CO)cc2F)C1)n1cc(-c2ncnc3[nH]ccc23)cn1 [Example 90, (3S)-3-{(3S)-1-[6-chloro-3-fluoro-5-(hydroxymethyl)pyridin-2-yl]pyrrolidin-3-yl}-3-[4-(7H-pyrrolo[2,3-d]pyrimidin-4-yl)-1H-pyrazol-1-yl]propanenitrile trifluoroacetate]
13 | < 50 | 6.9 | N#CC[C@@H]([C@H]1CCN(c2nc(Cl)c(N)cc2F)C1)n1cc(-c2ncnc3[nH]ccc23)cn1 [Example 91A, (S)-3-(4-(7H-pyrrolo[2,3-d]pyrimidin-4-yl)-1H-pyrazol-1-yl)-3-((S)-1-(5-amino-6-chloro-3-fluoropyridin-2-yl)pyrrolidin-3-yl)propanenitrile bis(trifluoroacetate)]
14 | < 50 | 7.0 | N#CC[C@@H]([C@H]1CCN(c2nc(Cl)c(F)cc2N)C1)n1cc(-c2ncnc3[nH]ccc23)cn1.O=C(O)C(F)(F)F.O=C(O)C(F)(F)F [Example 91B, (3S)-3-[(3S)-1-(3-amino-6-chloro-5-fluoropyridin-2-yl)pyrrolidin-3-yl]-3-[4-(7H-pyrrolo[2,3-d]pyrimidin-4-yl)-1H-pyrazol-1-yl]propanenitrile bis(trifluoroacetate)]
15 | < 50 | 5.3 | CCS(=O)(=O)c1ccc(F)c(N2CC[C@H]([C@H](CC#N)n3cc(-c4ncnc5[nH]ccc45)cn3)C2)n1 [Example 93, (3S)-3-{(3S)-1-[6-(ethylsulfonyl)-3-fluoropyridin-2-yl]pyrrolidin-3-yl}-3-[4-(7H-pyrrolo[2,3-d]pyrimidin-4-yl)-1H-pyrazol-1-yl]propanenitrile trifluoroacetate]
16 | < 50 | 17.9 | N#CC[C@@H]([C@H]1CCN(c2nc(Cl)ccc2F)C1)n1cc(-c2ncnc3[nH]ccc23)cn1 [Example 94, (3S)-3-[(3S)-1-(6-chloro-3-fluoropyridin-2-yl)pyrrolidin-3-yl]-3-[4-(7H-pyrrolo[2,3-d]pyrimidin-4-yl)-1H-pyrazol-1-yl]propanenitrile trifluoroacetate]
17 | < 50 | 7.6 | CCCS(=O)(=O)c1ccc(F)c(N2CC[C@H]([C@H](CC#N)n3cc(-c4ncnc5[nH]ccc45)cn3)C2)n1 [Example 99, trifluoroacetate]
18 | < 50 | 4.0 | COCc1c(F)cnc(N2CC[C@H]([C@H](CC#N)n3cc(-c4ncnc5[nH]ccc45)cn3)C2)c1F [Example 101, (3S)-3-{(3S)-1-[3,5-difluoro-4-(methoxymethyl)pyridin-2-yl]pyrrolidin-3-yl}-3-[4-(7H-pyrrolo[2,3-d]pyrimidin-4-yl)-1H-pyrazol-1-yl]propanenitrile trifluoroacetate]

From patent US8716303B2, “N-(hetero)aryl-pyrrolidine derivatives of pyrazol-4-yl-pyrrolo[2,3-d]pyrimidines and pyrrol-3-yl-pyrrolo[2,3-d]pyrimidines as janus kinase inhibitors” (Incyte Corporation, priority 2009, dated 2014)
